According to article PMC9045377, “CpxA Phosphatase Inhibitor Activates CpxRA and Is a Potential Treatment for Uropathogenic Escherichia coli in a Murine Model of Infection” (Microbiology Spectrum, 2022):

Experiments:
UPEC strain CFT073 = type: in vivo, Escherichia coli (in female CBA/J mice); conditions: compound 6 trial
Procedure: Four groups of eight female CBA/J mice were transurethrally inoculated with a target dose of ∼10^8 CFU of either CFT073 or CFT073ΔcpxA::cat. One group was treated with ciprofloxacin (2.5 mg/kg/dose dissolved in sterile distilled water) s.c. 12, 24, 36, 48, and 60 h after inoculation with CFT073 as described ([31]). The untreated CFT073 and CFT073ΔcpxA::cat inoculated groups were given the vehicle control s.c. at 12, 24, 36, 48, and 60 h after inoculation. The compound 6 treated group were given the drug (100 mg/kg) s.c. at 12, 36, and 60 h after inoculation with CFT073 and received the vehicle control s.c. at 24 and 48 h. The animals were sacrificed 4 h after the last treatment (64 h postinoculation) and CFU per milliliter or CFU per gram of tissue was determined in the urine, bladder, and kidneys.
Animal experiments were conducted according to the guidelines of the University of Michigan Institutional Animal Care and Use Committee. For the animal infection experiments, bacterial strains were cultured at 37°C in LB medium overnight with shaking ([30]). Female CBA/J mice (Jackson Laboratories, Bar Harbor, ME) were inoculated transurethrally with a target dose of ∼10^8 CFU of CFT073 or CFT073ΔcpxA::cat. Mice were subsequently treated 12 h later either with the vehicle, ciprofloxacin hydrochloride (PanReac AppliChem ITW Reagents; Jade Scientific), compound 1, compound 6, or compound 26 as described in Results and euthanized 4 h after the last treatment. Bacterial loads of each strain were calculated from the urine, bladder, and kidneys of mice as previously described; the limits of detection for these assays were 100 CFU/mL or 100 CFU/g of urine and tissue, respectively ([33]). Values of 50 CFU/mL or 50 CFU/g were assigned to specimens whose yields were below the limit of detection.
Due to the extreme skewness of the data, natural log transformation was used before the data were analyzed statistically. Descriptive statistics were calculated for all of the log-transformed variables. Statistical comparisons were done using analysis of variance (ANOVA) with follow-up pairwise tests adjusted for multiple comparisons using the Tukey procedure.

E. coli CFT073 proteome = assay: Label-free quantitative proteomics of CFT073 grown in human urine (LC-MS/MS); type: cell-based, Escherichia coli; conditions: 150 μM, 5 h
Procedure: E. coli CFT073 and CFT073ΔcpxA::cat were cultured overnight at 37°C in 5 mL of LB medium overnight with shaking. Bacteria were pelleted, washed twice in PBS, and suspended in 1 mL of PBS. Cells were then suspended in 10 mL of filter-sterilized pooled human urine obtained from 4 healthy female volunteers as described ([41]) to an OD600 of ∼0.02. Urine containing CFT073 was treated either with 150 mM compound 26 dissolved in 10 μL of DMSO to reach a final concentration of 150 μM or 10 μL of DMSO; urine containing CFT073ΔcpxA::cat was treated with 10 μL of DMSO. After 5 h of incubation, cultures were split into 5-mL aliquots, centrifuged, and the pellets were washed once with PBS and frozen at −80°C. One pellet from 4 independent experiments was used to detect CpxR-P using a Phos-Tag gel and Western blotting with an anti-MBP-CpxR antibody obtained from Thomas Silhavy as previously described ([31]). Densitometry values were determined using Photoshop 2021 (version 22.4.3), and the ratio of CpxR-P to CpxR was analyzed by one-way ANOVA adjusted for multiple comparisons using the Tukey procedure.
For label-free quantitative proteomics, cell pellets from 5 independent experiments were subjected for protein extraction followed by liquid chromatography-tandem mass spectrometry (LC-MS/MS). Sample preparation for LC-MS/MS analysis and proteomics pipeline was followed as described previously ([42]). In brief, bacteria were pelleted from urine cultures, and the pellets were solubilized in 1 mL of 8 M urea lysis buffer. Equal amounts of proteins (100 μg) were subjected for overnight trypsin/LysC (V5071; Promega) digestion. One microgram of bovine serum albumin (BSA) was added to each sample as an internal control prior to in-solution digestion. LC-MS/MS analysis was performed on a Dionex UltiMate 3000 (Thermo Fisher Scientific) system connected to a Q-Exactive HF-X mass spectrometer (Thermo Fisher Scientific). Detail settings of the LC-MS/MS analysis was described previously ([42]).
Peptide spectrum matching of MS/MS spectra was searched against the UniProt E. coli CFT073-UPEC database (TaxID 199310) using the Sequest algorithm within Proteome Discoverer version 2.4 software (Thermo Fisher Scientific). The Sequest database search was performed with the following parameters: trypsin enzyme cleavage specificity, 2 possible missed cleavages, 10 ppm mass tolerance for precursor ions, 0.02 Da mass tolerance for fragment ions. Search parameters permitted dynamic modification of methionine oxidation (+15.9949 Da) and static modification of carbamidomethylation (+57.0215 Da) on cysteine. Peptide assignments from the database search were filtered to a 1% false discovery rate. The relative label-free quantitative and comparative among the samples were performed using the Minora algorithm and Proteome Discoverer 2.4 software. Differential abundance of proteins between conditions was defined as a 1.5-fold change in relative abundance with an adjusted P value of <0.05.

[1] = threshold 1.5-fold, adjusted P <0.05

Row | Structure (SMILES) | CFU of CFT073 recovered in urine vs CFT073-inoculated vehicle control (UPEC strain CFT073; 8 mice/group, compound 6 100 mg/kg s.c. at 12, 36, 60 h, ciprofloxacin 2.5 mg/kg/dose s.c. at 12, 24, 36, 48, 60 h, sacrifice 64 h) | CFU of CFT073 recovered in bladder vs CFT073-inoculated vehicle control (UPEC strain CFT073; same regimens) | CFU of CFT073 recovered in kidneys vs CFT073-inoculated vehicle control (UPEC strain CFT073; same regimens) | additional higher-abundance proteins vs CFT073 control only (E. coli CFT073 proteome) | additional higher-abundance proteins vs CFT073ΔcpxA::cat control only (E. coli CFT073 proteome) | additional lower-abundance proteins vs CFT073 control only (E. coli CFT073 proteome) | additional lower-abundance proteins vs CFT073ΔcpxA::cat control only (E. coli CFT073 proteome) | number of higher abundance proteins vs both controls (E. coli CFT073 proteome; [1]) | number of lower abundance proteins vs both controls (E. coli CFT073 proteome; [1])
1 | NC1CCCc2c1[nH]c1ccc(F)cc21 (stereo not drawn) [compound 6] | no effect | no effect | no effect |  |  |  |  |  | 
2 | N[C@@H]1CCCc2c1[nH]c1cc(F)c(F)cc21 [compound 26] |  |  |  | 27 | 28 | 12 | 10 | 42 | 53
